Results from PMC6478789, “A chemical toolbox for the study of bromodomains and epigenetic signaling” (Nature Communications, 2019).

Tests used:
ATAD2B = molecular target: T1, ATAD2B (Homo sapiens, UniProt Q9ULI0); assay: BROMOscan ligand-binding assay; conditions: KD, BROMOscan Gene Symbol ATAD2B
T1 sequence (Q9ULI0 951-1066 limits assumed): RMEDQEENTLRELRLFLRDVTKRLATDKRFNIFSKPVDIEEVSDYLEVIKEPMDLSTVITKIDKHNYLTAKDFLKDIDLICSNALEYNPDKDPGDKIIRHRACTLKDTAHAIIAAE
Description: (§2) BROMOscan is a binding assay based on the well-known KINOMEscan technology. This assay measures the binding of a DNA-tagged bromodomain to an immobilized BRD ligand. If an inhibitor is present, it will compete with the bromodomain binding to the immobilized ligand, resulting in reduction of a quantitative PCR (qPCR) signal in a dose-dependent manner.

TRIM33(PHD,BRD) = molecular target: T2, TRIM33(PHD,BRD) (Homo sapiens, UniProt Q9UPN9); assay: BROMOscan ligand-binding assay
T2 sequence (Q9UPN9 882-1087 limits assumed): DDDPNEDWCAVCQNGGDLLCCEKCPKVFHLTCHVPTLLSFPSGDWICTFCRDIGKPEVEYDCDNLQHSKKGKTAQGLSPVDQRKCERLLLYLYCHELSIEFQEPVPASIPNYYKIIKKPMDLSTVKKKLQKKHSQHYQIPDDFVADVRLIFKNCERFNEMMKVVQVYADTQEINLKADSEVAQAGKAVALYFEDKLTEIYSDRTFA
Description: as §2

SMARCA2(iso.A) = SMARCA2(iso.A) (Homo sapiens, UniProt P51531); assay: BROMOscan ligand-binding assay; conditions: KD, BROMOscan Gene Symbol SMARCA2(iso.A)
Description: as §2

ATAD2A = molecular target: T3, ATAD2A (Homo sapiens, UniProt Q6PL18); assay: BROMOscan ligand-binding assay; conditions: KD, BROMOscan Gene Symbol ATAD2A
T3 sequence (Q6PL18 980-1092 limits assumed): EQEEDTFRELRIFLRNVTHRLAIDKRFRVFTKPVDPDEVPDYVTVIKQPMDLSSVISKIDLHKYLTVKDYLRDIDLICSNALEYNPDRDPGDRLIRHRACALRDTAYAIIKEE
Description: as §2

WDR9(2) = WDR9(2) (Homo sapiens, UniProt Q9NSI6); assay: BROMOscan ligand-binding assay
Description: as §2

SMARCA2 = SMARCA2 (Homo sapiens, UniProt P51531); assay: BROMOscan ligand-binding assay; conditions: KD, BROMOscan Gene Symbol SMARCA2
Description: as §2

BRPF1 = molecular target: T4, BRPF1 (Homo sapiens, UniProt P55201); assay: BROMOscan ligand-binding assay; conditions: KD, BROMOscan Gene Symbol BRPF1
T4 sequence (P55201 628-732 limits assumed): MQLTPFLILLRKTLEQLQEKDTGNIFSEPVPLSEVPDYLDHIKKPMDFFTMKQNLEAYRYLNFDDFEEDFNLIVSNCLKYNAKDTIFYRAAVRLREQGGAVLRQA
Description: as §2

BAZ2B = molecular target: T5, BAZ2B (Homo sapiens, UniProt Q9UIF8); assay: BROMOscan ligand-binding assay; conditions: KD, BROMOscan Gene Symbol BAZ2B
T5 sequence (Q9UIF8 2060-2164 limits assumed): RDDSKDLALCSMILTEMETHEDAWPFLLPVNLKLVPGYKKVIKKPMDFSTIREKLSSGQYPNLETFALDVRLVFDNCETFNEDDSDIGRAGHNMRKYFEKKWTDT
Description: as §2

EP300 = molecular target: T6, EP300 (Homo sapiens, UniProt Q09472); assay: BROMOscan ligand-binding assay; conditions: KD, BROMOscan Gene Symbol EP300
T6 sequence (Q09472 1049-1156 limits assumed): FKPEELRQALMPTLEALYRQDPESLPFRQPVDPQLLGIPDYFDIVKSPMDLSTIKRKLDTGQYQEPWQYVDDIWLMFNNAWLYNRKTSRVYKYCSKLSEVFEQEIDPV
Description: as §2

BRD8(1) = BRD8(1) (Homo sapiens, UniProt Q9H0E9); assay: BROMOscan ligand-binding assay; conditions: KD, BROMOscan Gene Symbol BRD8(1)
Description: as §2

BRD8(2) = BRD8(2) (Homo sapiens, UniProt Q9H0E9); assay: BROMOscan ligand-binding assay; conditions: KD, BROMOscan Gene Symbol BRD8(2)
Description: as §2

BAZ1B = molecular target: T7, BAZ1B (Homo sapiens, UniProt Q9UIG0); assay: BROMOscan ligand-binding assay; conditions: KD, BROMOscan Gene Symbol BAZ1B
T7 sequence (Q9UIG0 1339-1443 limits assumed): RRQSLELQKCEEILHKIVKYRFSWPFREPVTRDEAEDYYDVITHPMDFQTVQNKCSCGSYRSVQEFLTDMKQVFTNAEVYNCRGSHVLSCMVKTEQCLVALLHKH
Description: as §2

C2C12 myoblast cells = assay: Gene-expression analysis (microarray); type: cell-based, mouse; conditions: 12 h; 500 nM (JQ1, LP-99), 2 μM (GSK2801, BAZ2-ICR, BSP)
Description: Total RNA was extracted using the PureLink^TM RNA mini kit (Thermo Fisher Scientific, 12183018A) as per the manufacturer’s protocol.
RNA samples were processed for oligonucleotide microarray profiling utilizing the Affymetrix Clariom^TM S Assay HT mouse. Quality controls were carried out in R (v.3.5.1) and Bioconductor[71] (v.3.7) using the arrayQualityMetrics package (v.3.36.0) taking into account array intensity distributions, distance between arrays, and variance mean dependence. Principal component analysis was used to decide which arrays to process together. After quality control, arrays were corrected for background, normalized, and log2-transformed together using the rma function of the oligo package (v.1.44)[73] in R/Bioconductor. Probes with small variance across samples were filtered out using the genefilter (v.1.62) package, employing the nsFilter function and an interquartile range cut-off of 0.28 (or >log(1.2), determined by the midpoint of the shortest interval containing half of the data). This reduced the number of probes of the Clariom^TM S array from 29,129 to 14,538.
Differential expression analysis was conducted using the limma package (v.3.36.2)[74], employing a linear model followed by empirical Bayesian analysis to determine differential expression between not-treated and treated samples.

GCN5L2 = molecular target: T8, GCN5L2 (Homo sapiens, UniProt Q92830); assay: BROMOscan ligand-binding assay; conditions: KD, BROMOscan Gene Symbol GCN5L2
T8 sequence (Q92830 728-832 limits assumed): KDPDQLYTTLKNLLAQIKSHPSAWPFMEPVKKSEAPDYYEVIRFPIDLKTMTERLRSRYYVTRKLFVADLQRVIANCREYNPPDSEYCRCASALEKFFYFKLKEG
Description: as §2

TAF1L(2) = molecular target: T9, TAF1L(2) (Homo sapiens, UniProt Q8IZX4); assay: Temperature shift assay (bromodomains); type: binding; conditions: compared to ITC KD
T9 construct: purchased DiscoverX BROMOscan (bromodomains); SGC in-house methyltransferase panel
Description: (§1) Temperature shift assays have been described by Fedorov et al.[46]. Recombinant protein domains (bromodomain or kinases) at a concentration of 2 μM in 10 mM HEPES, pH 7.5, and 500 mM NaCl were mixed with 10 μM of chemical probes. Temperature-dependent protein unfolding profiles were measured using a Real-Time PCR Mx3005p machine (Stratagene).

BRD9 = molecular target: T10, BRD9 (Homo sapiens, UniProt Q9H8M2); assay: Temperature shift assay (bromodomains); type: binding; conditions: compared to ITC KD
T10 construct: purchased DiscoverX BROMOscan (bromodomains); SGC in-house methyltransferase panel
Description: as §1

CBP = molecular target: T11, CBP (Homo sapiens, UniProt Q92793); assay: Temperature shift assay (bromodomains); type: binding; conditions: compared to ITC KD
T11 construct: Recombinant protein domains (bromodomain or kinases) at a concentration of 2 μM
Description: as §1

[1] = KD (BROMOscan), sheet prints no unit (nM)

WDR9(2), sequence (Q9NSI6 1313-1418 limits assumed): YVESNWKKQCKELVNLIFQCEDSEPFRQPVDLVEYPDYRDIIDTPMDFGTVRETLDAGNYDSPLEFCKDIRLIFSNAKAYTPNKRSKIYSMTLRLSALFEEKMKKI
T11 sequence (Q92793 1085-1192 limits assumed): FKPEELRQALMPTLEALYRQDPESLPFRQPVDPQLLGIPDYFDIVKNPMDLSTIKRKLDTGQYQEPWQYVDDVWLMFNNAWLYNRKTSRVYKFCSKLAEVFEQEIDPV
T10 sequence (Q9H8M2 134-239): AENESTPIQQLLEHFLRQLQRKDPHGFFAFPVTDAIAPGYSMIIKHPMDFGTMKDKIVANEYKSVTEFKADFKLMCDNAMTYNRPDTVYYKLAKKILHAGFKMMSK
BRD8(1), sequence (Q9H0E9 706-811 limits assumed): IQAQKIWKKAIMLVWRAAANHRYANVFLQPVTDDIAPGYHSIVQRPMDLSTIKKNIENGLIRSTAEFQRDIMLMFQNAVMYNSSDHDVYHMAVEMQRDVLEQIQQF
SMARCA2, sequence (P51531 1-1572 isoform P51531-2): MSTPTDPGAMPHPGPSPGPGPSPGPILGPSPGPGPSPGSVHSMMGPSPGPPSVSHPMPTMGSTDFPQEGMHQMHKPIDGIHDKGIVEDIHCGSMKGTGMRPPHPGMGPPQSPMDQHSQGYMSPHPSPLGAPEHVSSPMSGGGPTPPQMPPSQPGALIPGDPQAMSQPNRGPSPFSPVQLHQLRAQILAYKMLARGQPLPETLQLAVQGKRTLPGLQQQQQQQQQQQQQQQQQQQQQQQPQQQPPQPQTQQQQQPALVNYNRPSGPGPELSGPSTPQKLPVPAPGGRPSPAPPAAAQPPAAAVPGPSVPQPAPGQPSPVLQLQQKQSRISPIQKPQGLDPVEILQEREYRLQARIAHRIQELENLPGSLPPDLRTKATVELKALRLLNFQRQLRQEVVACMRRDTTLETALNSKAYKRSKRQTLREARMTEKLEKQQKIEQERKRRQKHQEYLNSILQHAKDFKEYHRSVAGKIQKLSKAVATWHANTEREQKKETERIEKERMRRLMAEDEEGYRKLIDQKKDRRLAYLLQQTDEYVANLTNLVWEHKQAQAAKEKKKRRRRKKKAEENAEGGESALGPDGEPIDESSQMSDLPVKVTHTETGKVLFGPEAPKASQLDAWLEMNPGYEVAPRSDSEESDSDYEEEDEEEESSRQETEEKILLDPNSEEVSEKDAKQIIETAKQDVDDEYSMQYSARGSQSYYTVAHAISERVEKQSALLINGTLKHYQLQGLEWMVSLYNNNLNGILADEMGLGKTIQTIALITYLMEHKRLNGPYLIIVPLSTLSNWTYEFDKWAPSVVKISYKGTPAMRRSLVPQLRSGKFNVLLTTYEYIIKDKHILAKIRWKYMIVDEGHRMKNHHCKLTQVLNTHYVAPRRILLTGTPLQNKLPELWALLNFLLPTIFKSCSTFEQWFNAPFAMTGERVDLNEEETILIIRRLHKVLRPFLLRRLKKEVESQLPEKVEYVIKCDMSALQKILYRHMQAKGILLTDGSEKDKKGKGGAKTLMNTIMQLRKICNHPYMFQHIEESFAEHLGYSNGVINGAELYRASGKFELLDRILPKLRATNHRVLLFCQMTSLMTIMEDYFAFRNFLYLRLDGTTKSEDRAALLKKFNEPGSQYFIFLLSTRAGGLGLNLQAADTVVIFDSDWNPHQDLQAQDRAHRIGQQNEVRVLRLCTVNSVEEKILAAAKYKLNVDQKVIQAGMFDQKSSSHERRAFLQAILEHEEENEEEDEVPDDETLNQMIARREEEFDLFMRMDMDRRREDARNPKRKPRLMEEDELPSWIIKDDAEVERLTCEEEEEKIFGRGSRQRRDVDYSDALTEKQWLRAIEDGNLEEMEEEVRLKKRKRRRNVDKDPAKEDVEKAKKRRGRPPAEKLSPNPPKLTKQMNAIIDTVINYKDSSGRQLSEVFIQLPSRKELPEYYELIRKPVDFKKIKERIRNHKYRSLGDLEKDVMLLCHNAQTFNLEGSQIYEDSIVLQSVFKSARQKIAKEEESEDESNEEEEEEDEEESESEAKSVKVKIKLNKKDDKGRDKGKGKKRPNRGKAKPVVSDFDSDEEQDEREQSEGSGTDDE
SMARCA2(iso.A), sequence (P51531 1378-1506 limits assumed): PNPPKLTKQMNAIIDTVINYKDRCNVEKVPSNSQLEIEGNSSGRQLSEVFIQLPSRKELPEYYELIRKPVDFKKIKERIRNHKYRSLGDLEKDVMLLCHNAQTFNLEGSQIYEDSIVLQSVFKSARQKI
T9 sequence (Q8IZX4 1523-1654 limits assumed): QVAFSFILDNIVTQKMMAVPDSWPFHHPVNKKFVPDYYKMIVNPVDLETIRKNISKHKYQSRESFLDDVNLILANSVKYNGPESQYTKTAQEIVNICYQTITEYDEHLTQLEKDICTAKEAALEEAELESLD
BRD8(2), sequence (Q9H0E9 1099-1207 limits assumed): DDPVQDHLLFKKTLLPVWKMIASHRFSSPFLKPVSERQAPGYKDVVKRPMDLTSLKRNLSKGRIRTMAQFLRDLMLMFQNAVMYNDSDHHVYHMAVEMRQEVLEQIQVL

For `CCOC(=O)Nc1cc(-c2ccc(C)c(NS(C)(=O)=O)c2)nn2c(C)nnc12` [Bromosporine], the Kd (ATAD2B) was 30 µM, the Kd (TRIM33(PHD,BRD); [1]) was > 30000 nM and the Kd (TRIM33(PHD,BRD); KD, BROMOscan Gene Symbol TRIM33(PHD,Bromo.)) was > 50000 nM. The Kd (SMARCA2(iso.A)) was 6.2 µM, the Kd (ATAD2A) was 62 µM and the Kd (WDR9(2); [1]) was > 30000 nM. The Kd (WDR9(2); KD, BROMOscan Gene Symbol WDR9(2)) was > 50000 nM, the Kd (SMARCA2) was 4.6 µM and the Kd (BRPF1) was 0.6 µM. It also gave a Kd (BAZ2B) of 9.1 µM, a Kd (EP300) of 1.6 µM and a Kd (BRD8(1)) of 28 µM. The Kd (BRD8(2)) was 40 µM, the Kd (BAZ1B) was 38 µM and the “changes in gene-expression levels” value (C2C12 myoblast cells) was “significant changes in gene-expression levels”. For the same compound, the Kd (GCN5L2) was 12 µM, the ΔTm (TAF1L(2)) was “only modest ΔTm” and the ΔTm (BRD9) was “only modest ΔTm”. The ΔTm (CBP) was “relatively large ΔTm”.
